Key:
[1] = target: T1, human M A1AT (Homo sapiens, UniProt P01009); assay: A1AT cell secretion assay using HEK-M cells (ELISA); assay type: cell-based; details: 10 μM, 48 h
T1 construct: expressed in transfected cells; host or cells: HEK-M cells (HEK-EBNA with M A1AT plasmid)
Procedure: (§1) HEK-M cells, a human embryonic kidney cell line stably transfected with M A1AT, were plated into 96 well plates (3.0×10^5 cells/ml with 200 μl of media/well) overnight at 37° C. in a humidified atmosphere containing 5% CO2. Following incubation cells were washed with 200 μl serum-free media three times and media was replaced with serum-free media containing either vehicle, 10 μM suberanilohydroxamic acid (SAHA), (S)-1-((2-(trifluoromethyl)phenyl)sulfonyl)piperidine-3-carboxylic acid (at 10 μM) or (R)-1-((2-(trifluoromethyl)phenyl)sulfonyl)piperidine-3-carboxylic acid (at 10 μM) in replicates of six for 48 h in a 37° C. incubator in a final volume of 200 μl. At the end of the incubation step the supernatants were removed from the wells, centrifuged at 1000×g at 4° C. for 10 min and were assayed for human A1AT levels by ELISA (Human Serpin A1/α1 antitrypsin duo set ELISA, R& D Systems, DY1268) per manufacturer's instructions.
(§2) Briefly, a 96 well plate was coated with human A1AT capture antibody overnight at room temperature (1:180 dilution from stock, 100 μl final volume/well). The capture antibody was then removed and wells washed three times with 300 μl wash buffer (0.05% Tween in PBS) and then 200 μl reagent diluent (25% Tween 20 in PBS) was incubated in each well for 1 h at room temperature. Diluted samples, standards (125, 250, 500, 1000, 2000, 4000 and 8000 pg/ml A1AT) or blanks were then added to each well in duplicate and the plates were covered with a plate sealer and left at room temperature for 2 h. […] After which, 50 μl stop solution (2M H2SO4) was added and optical density (OD) of each well was read at 450 nm with 570 nm blank subtracted from each well using a microplate reader. A 4 parameter logistic curve was constructed using GraphPad Prism 7 and A1AT concentrations were determined in each sample by interpolation from a standard curve and multiplying by the appropriate dilution factor.
(§3) The amount of human A1AT secreted from transfected HEK-EBNA cells into the media was measured by ELISA. […]

[2] = target: T2, human Siiyama A1AT (Homo sapiens, UniProt P01009, S77F); assay: A1AT cell secretion assay using HEK-Siiyama cells (ELISA); assay type: cell-based; details: 10 μM, 48 h
T2 construct: expressed in transfected cells; host or cells: HEK-Siiyama cells (HEK-EBNA with Siiyama A1AT plasmid)
T2 sequence (P01009 25-418 S77F): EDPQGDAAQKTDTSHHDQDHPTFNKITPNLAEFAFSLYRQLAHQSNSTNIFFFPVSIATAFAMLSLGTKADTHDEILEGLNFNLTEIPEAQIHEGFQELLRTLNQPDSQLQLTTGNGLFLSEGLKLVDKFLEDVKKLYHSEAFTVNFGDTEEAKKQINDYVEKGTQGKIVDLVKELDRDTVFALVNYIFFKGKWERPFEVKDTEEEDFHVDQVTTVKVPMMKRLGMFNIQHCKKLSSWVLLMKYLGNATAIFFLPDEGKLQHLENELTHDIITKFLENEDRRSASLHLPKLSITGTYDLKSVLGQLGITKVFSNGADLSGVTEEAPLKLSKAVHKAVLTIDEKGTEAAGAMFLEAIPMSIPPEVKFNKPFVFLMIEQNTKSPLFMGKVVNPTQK
Procedure: as §1, with “HEK-Siiyama” for “HEK-M”, “the Siiyama A1AT gene,” for “M A1AT,”, “containing” for “containing either”, “(at 1 or” for “(at”, “eight” for “six”, “A1/α1-antitrypsin” for “A1/α1 antitrypsin”
as §2, with “(0.05% Tween 20 in PBS)” for “(0.05% Tween in PBS)”
as §3

T1 sequence (P01009 25-418): as the sequence (P01009 25-418 S77F) above, with F53S counted along it

## O=C(CCCCCCC(=O)Nc1ccccc1)NO [SAHA, suberanilohydroxamic acid, reference compound]
[1]
  secretion of human M A1AT into cell supernatant: stimulates an increase in M A1AT secretion
[2]
  secretion of human Siiyama A1AT into cell supernatant (positive control): stimulates an increase in Siiyama A1AT secretion

Source: US12673050B2, “Compositions and their use for the treatment of A1-antitrypsin deficiency” (Centessa Pharmaceuticals (UK) Limited, priority 2021, dated 2026)
